Measured values as given in PMC7316822 (Scientific Reports, 2020).

How the values were obtained:
MARK4 [1] = target: T1, MARK4 (Homo sapiens, UniProt Q96L34); assay: Steady-state fluorescence quenching binding studies; settings: for Kq (bimolecular quenching rate constant): Kq=Ksv/τ0; for ∆G: van't Hoff equation
T1 construct: made in house
T1 sequence (Q96L34 1-752): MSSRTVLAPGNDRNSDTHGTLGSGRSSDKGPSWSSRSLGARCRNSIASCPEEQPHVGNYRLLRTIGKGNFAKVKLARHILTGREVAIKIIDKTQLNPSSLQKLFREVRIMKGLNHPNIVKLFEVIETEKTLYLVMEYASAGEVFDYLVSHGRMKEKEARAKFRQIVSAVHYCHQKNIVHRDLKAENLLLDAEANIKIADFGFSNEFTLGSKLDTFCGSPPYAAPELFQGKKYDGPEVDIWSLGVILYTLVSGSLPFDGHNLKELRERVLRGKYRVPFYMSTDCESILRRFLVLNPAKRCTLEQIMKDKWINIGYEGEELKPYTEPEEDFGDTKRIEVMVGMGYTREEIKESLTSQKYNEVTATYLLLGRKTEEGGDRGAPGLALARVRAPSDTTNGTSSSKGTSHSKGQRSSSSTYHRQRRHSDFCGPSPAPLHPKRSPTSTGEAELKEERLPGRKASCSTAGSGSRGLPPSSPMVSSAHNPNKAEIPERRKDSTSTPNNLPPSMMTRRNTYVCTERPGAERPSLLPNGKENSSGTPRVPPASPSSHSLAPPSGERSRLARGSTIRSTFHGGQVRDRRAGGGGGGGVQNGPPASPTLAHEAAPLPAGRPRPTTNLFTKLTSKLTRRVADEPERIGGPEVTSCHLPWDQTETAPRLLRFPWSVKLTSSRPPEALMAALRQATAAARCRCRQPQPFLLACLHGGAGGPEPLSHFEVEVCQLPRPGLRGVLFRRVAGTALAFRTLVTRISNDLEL
Protocol: Fluorescence quenching experiments were carried out on Jasco FP-6200 spectrofluorometer attached with an external water bath which serves as a temperature controller. The experiment was carried out at three different temperatures in triplicates. The protein concentration was kept constant at 4 µM while the ligand was titrated in the ratio of 1:9 at all three temperatures (288 K, 298 K, and 305 K). The fluorescence intensities were corrected for the inner filter effect according to Chi & Liu, 2011[57] the following equation:1 Fcorrected=Fobservede^(Aex+Aobs)/2
Aex and Aobs are the absorption of the system at excitation and emission wavelengths, respectively. The fluorescence intensities were corrected after taking filter effect into account and all the reported spectra are the subtracted spectra taking fluorescence of ligand alone. Fluorescence quenching data was further analyzed employing Stern-Volmer, modified Stern-Volmer and van’t Hoff equation.
To analyze the quenching data, Stern Volmer equation (Eq. 2) was deployed to find the Stern-Volmer constant:2 F0/F=1+Ksv[C] where F0 & F are fluorescence intensity of MARK4 in the absence and presence of RA, [C] is the concentration of RA. Ksv refers to Stern–Volmer constant.
The Ksv value decreases with increasing temperature for static quenching while the opposite effect is observed for dynamic quenching. […] Thus, we can say that the MARK4-RA complex formation is driven by the dynamic mode of quenching. The mode of quenching was further confirmed from the value of bimolecular quenching rate constant, Kq, which was calculated as per Eq. 33 Kq=Ksv/τ0 τo refers to the average integral fluorescence lifetime of tryptophan and is reported to be 2.7 × 10^-9 s.
Further, decrease in fluorescence in the presence of RA was analyzed by modified Stern-Volmer equation (Eq. 4)[63],[64].4 logF0−F/F=logK+nlog[C]
Using van’t Hoff equation (Eq. 5)[65], thermodynamic parameters for ligand-protein interaction such as Gibbs free energy change (∆G), enthalpy change (∆H) and entropy change (∆S) can be calculated.5 ΔG=−RTLnK=ΔH−TΔS K is the binding constant, ∆H is enthalpy change, ∆G is Gibbs free energy change, ∆S is entropy change, and R is the universal gas constant (1.987 cal mol^−1 K^−1). The experimental fitting of data as per Eq. 5 is shown in Fig. 6C […]. The slope of this plot gives the value of -∆H/R, and the intercept giving the value of ∆S/R.“T”.

MARK4 [2] = target: T1, MARK4; assay: Isothermal titration calorimetry; assay type: binding
Protocol: ITC measurements were done at 25 °C on a VP-ITC microcalorimeter from MicroCal, Inc (GE, MicroCal, USA). The first injection was a false one of 2 s with other injections set at 10 s. The sample cell was filled with MARK4 with reference cell with a reference buffer and a syringe containing 500 µM RA was titrated into MARK4. MicroCal Origin 8.0 was used to analyze the obtained data.

MARK4 [3] = target: T1, MARK4; assay: ATPase enzyme inhibition assay (malachite green); assay type: biochemical; settings: RA 0–18 µM, ATP 200 µM, MARK4 4 µM, 25 °C, 1 hour
Protocol: To see the inhibitory effect of RA on MARK4, an ATPase assay was carried out in the presence of increasing concentrations of RA. Freshly prepared ATP (200 µM) was added to MARK4 (4 µM) and final reaction mixture of 100 μl was incubated at 25 °C for 1 hour. Malachite green (200 μl) was further added to the reaction mixture to stop the reaction followed by incubation of samples at room temperature for 20–25 minutes for the development of color. From the final reaction mixture, 100 μl was transferred to a 96-well plate in triplicates to measure spectrophotometrically at 620 nm.

phosphorylation of tau = assay: Tau-phosphorylation assay (flow cytometry); assay type: cell-based, human; settings: SH-SY5Y cells, IC50 and 2 × IC50 doses, 48 h, vs untreated cells
Protocol: To see the effect of RA treatment on the activity of MARK4, Tau-phosphorylation studies were performed as per the previously published protocol. Briefly, SH-SY5Y cells were incubated with IC50 and 2 × IC50 doses of RA. Approximately, 10^6 cells were collected after 48 h treatment, washed with PBS, fixed and incubated with anti-tau antibodies at 25 °C for 2–4 hrs. Following the incubation, cells were washed and analyzed by flow cytometry.

MDA-MB-231 cells [4] = assay: MTT cell viability, MDA-MB-231; assay type: cell-based, human; settings: MDA-MB-231, 0–200 μM, 72 h
A549 cells = assay: MTT cell viability, A549; assay type: cell-based, human; settings: A549, 0–200 μM, 72 h
Protocol: The cytotoxicity studies of selected synthesized compounds were accessed using standard MTT assay[16],[58],[59]. Briefly, 5000–6000 cells/well were plated in 96-well cell culture plate and next day cells were treated with selected compounds (0–200 μM) for 72 h. After 72 h incubation, the culture medium was removed and after washing with phosphate buffer saline (pH 7.4) cells were incubated with MTT solution (a mixture of 100 µl in complete medium and 25 µl of MTT solution taken from 5 mg/ml stock), at 37 °C in the CO2 incubator. Afterward, the resultant formazan crystals were dissolved in 150–200 µl of DMSO and the absorbance of the reaction product was measured at 570 nm using a multiplate ELISA reader (BioRad). The percentage of cell viability was calculated and plotted as a function of RA concentration.

MARK4 [5] = assay: MARK4 protein expression by western blot; assay type: cell-based, human; settings: MDA-MB-231 cells, IC50 concentration, 48 h, immunoblotting
Protocol: MDA-MB-231 vehicle control or RA treated cells were lysed in RIPA cell lysis buffer (Thermo Fisher Scientific, USA). Total protein was isolated and quantified by Bicinchoninic acid assay kit. Approximately 30–40 μg of whole-cell protein was diluted with 6X Laemmli’s buffer, boiled for 3–5 min and resolved using 12% SDS-polyacrylamide electrophoresis under reducing conditions. The resolved polypeptides were transferred to polyvinylidene fluoride (PVDF) membrane using blotting and identified using protein-specific primary antibodies and horseradish peroxidase conjugated secondary antibodies. Luminol was used as a chemiluminescent substrate for HRP[56].

MDA-MB-231 cells [6] = assay: Cell apoptosis assay (Annexin-V/PI staining); assay type: cell-based, human; settings: 72 h
Protocol: Apoptosis inducing properties of RA was studied using Annexin-V/PI staining as described previously[58],[60]. In brief, cells were treated with IC50 and 2 × IC50 doses of RA for 72 h at 37 °C, while control cells were treated with cell culture media only or vehicle control. After 72 h incubation, ~1.0–1.5 × 10^6 cells were collected, washed three times with PBS and stained using FITC labeled Annexin-V and PI (BD-Biosciences, USA). Stained cells were analyzed using BD LSR II Flow Cytometry Analyzer and FlowJo.

[7] = Binding constant (K), fluorescence quenching studies, temperature not given
[8] = van't Hoff plot, 288, 298 and 305 K

O=c1c(O)c(-c2ccc(O)c(O)c2)oc2cc(O)cc(O)c12 [Quercetin]
Kd (MARK4 [1]; [7]): 9760 µM

COc1cc(/C=C/C(=O)O)ccc1O [Ferulic Acid]
binding constant (K) (MARK4 [1]; fluorescence quenching studies, temperature not given): 50 M⁻¹

O=C(/C=C/c1ccc(O)c(O)c1)O[C@H](Cc1ccc(O)c(O)c1)C(=O)O [Rosmarinic acid]
Ksv (Stern-Volmer constant) (MARK4 [1]; 288 K): 11.5 10^5 M^−1
TΔS° (MARK4 [1]; 288 K): -12.0468 kcal/mol
n (number of binding sites) (MARK4 [1]; 288 K): 1.34
Kq (bimolecular quenching rate constant) (MARK4 [1]; 288 K): 4.25 10^14M^-1 s^-1
binding constant (K) (MARK4 [1]; 288 K, double log relation): 5e+06 M⁻¹
∆G (MARK4 [1]; 288 K): -8.956 kcal/mol
Ksv (Stern-Volmer constant) (MARK4 [1]; 298 K): 24.9 10^5 M^−1
TΔS° (MARK4 [1]; 298 K): -12.4651 kcal/mol
n (number of binding sites) (MARK4 [1]; 298 K): 1.22
Kq (bimolecular quenching rate constant) (MARK4 [1]; 298 K): 9.22 10^14M^-1 s^-1
binding constant (K) (MARK4 [1]; 298 K, double log relation): 2e+06 M⁻¹
∆G (MARK4 [1]; 298 K): -8.538 kcal/mol
Ksv (Stern-Volmer constant) (MARK4 [1]; 305 K): 29.4 10^5 M^−1
TΔS° (MARK4 [1]; 305 K): -12.7579 kcal/mol
n (number of binding sites) (MARK4 [1]; 305 K): 1.10
Kq (bimolecular quenching rate constant) (MARK4 [1]; 305 K): 10.88 10^14M^-1 s^-1
binding constant (K) (MARK4 [1]; 305 K, double log relation): 700000 M⁻¹
∆G (MARK4 [1]; 305 K): -8.245 kcal/mol
Kd (MARK4 [1]; [7]): 0.1 µM
Kd (MARK4 [1]; K (binding constant), 288 K, modified Stern-Volmer): 0.2 µM
Kd (MARK4 [1]; K (binding constant), 298 K, modified Stern-Volmer): 0.5 µM
Kd (MARK4 [1]; K (binding constant), 305 K, modified Stern-Volmer): 1.43 µM
∆H (MARK4 [1]; [8]): -21.003 kcal/mol
∆S (MARK4 [1]; [8]): −41.82 calmol^−1K^−1
Kd (MARK4 [2]): 0.227 µM
∆S (MARK4 [2]; ITC, 25 °C): −26.4 cal.mol^−1K^−1
IC50 (MARK4 [3]): 6.2 µM
phosphorylation of tau (phosphorylation of tau): decreases phosphorylation of tau
cell growth / viability (MDA-MB-231 cells [4]): significantly inhibited the growth
cell growth / viability (A549 cells): significantly inhibited the growth
protein expression level of MARK4 (MARK4 [5]): decreases the expression of MARK4
apoptotic cells (MDA-MB-231 cells [6]; MDA-MB-231, 2 × IC50 concentration): 15.90%
apoptotic cells (MDA-MB-231 cells [6]; MDA-MB-231, IC50 concentration): 9.0%

COc1cc(C=O)ccc1O [Vanillin]
Kd (MARK4 [1]; [7]): 6.21 µM

O=c1oc2c(O)c(O)cc3c(=O)oc4c(O)c(O)cc1c4c23 [Ellagic Acid]
Kd (MARK4 [1]; [7]): 9900 µM
